{"source": "patent US20120009271A1", "about": "“METHOD OF DISEASE-INDUCED AND RECEPTOR-MEDIATED STEM CELL NEUROPROTECTION” (MEDICAL COLLEGE OF GEORGIA, priority 2009, published 2012)", "key": {"[1]": {"system": "cultured human amnion stem cells", "experiment": "Oxidative stress (H202) in cultured human amnion stem cells, cell survival (Hoechst 33258, trypan blue)", "assay_type": "cell-based", "settings": "pre-treatment with melatonin 100 μM; H202 100 μM at day 4, survival at day 5; versus non-melatonin treated cells"}, "[2]": {"system": "cultured human amniotic epithelial cells (AECs)", "experiment": "Immunocytochemistry of proliferation and differentiation of cultured AECs with or without melatonin", "assay_type": "cell-based", "text": "This is true for both control cells and cells treated with melatonin."}, "[3]": {"settings": "in vivo; cited from earlier work"}, "[4]": {"system": "OGD-exposed primary rat cells", "experiment": "Oxygen glucose deprivation (OGD) injury model, cell viability (Trypan blue and MTT assay)", "settings": "AECs 5,000 per well or melatonin 100 uM; 20,000 rat cells per well", "experimental": "To reveal the neuroprotective effects of these stem cells, cultured primary rat cells (gestation age 18) were initially exposed to OGD and immediately thereafter stem cells or conditioned media (harvested from OGD-exposed stem cells over 7 days) were added. Parallel sister cultures included non-OGD exposed rat cells (positive control). Stem cell doses were varied at 0 (negative control), 2.5%, 5%, 10% or 25% of total cell population per well. After 3 hours of stem cell or conditioned media treatment, cell viability (Trypan blue and MTT assay) and ELISA were performed.\nCultured primary rat cells (gestation age 18) were initially exposed to the oxygen glucose deprivation (OGD) injury model (92% N2 and 8% O2 gas for 90 minutes), and immediately thereafter AECs, AMCs or conditioned media (harvested from AECs or AMCs cultured over 7 days) were added to the OGD-exposed cells. Parallel sister cultures included non-OGD exposed rat cells (positive control). Placenta cell doses were varied at 0 (negative control), 2.5%, 5%, 10% or 25% of total cell population per well. After 3 hours of placenta cell or conditioned media treatment, cell viability (Trypan blue and MTT assay) and ELISA were performed.\nCultured primary rat cells (gestation age 18; 20,0000 cells per well) were initially exposed to the OGD injury model (92% N2 and 8% 02 gas for 90 minutes). […]"}}, "note": "“Also recorded” adds a separate entry of the source."}
{"smiles": "COc1ccc2[nH]cc(CCNC(C)=O)c2c1", "note": "[melatonin, N-acetyl-5-methoxytryptamine]", "values": [{"measurement": "cell survival after oxidative stress", "setting": "[1]", "result": "protected against cell death; also recorded: significantly greater"}, {"measurement": "total TuJ1 positive cells in 5 fields (dendrite +/-)", "setting": "[2]; 100 μM Melatonin versus control, FIG. 14A", "result": "increased the total number of cells expressing Tull"}, {"measurement": "total nestin positive or nestin/MelR1 positive cells in 5 fields", "setting": "[2]; 100 μM Melatonin versus control, FIG. 14B", "result": "increases the total number of nestin positive or nestin/MelR1 positive expressing cells"}, {"measurement": "neural differentiation (TuJ1 and GFAP) of melatonin receptor 1-expressing AECs", "setting": "[2]; melatonin in growth media", "result": "enhanced neural differentiation"}, {"measurement": "proliferation of melatonin receptor 1-expressing AECs", "setting": "[2]; melatonin in growth media", "result": "dose-dependently suppressed proliferation"}, {"measurement": "half life", "setting": "[3]", "result": "30 to 53", "unit": "min"}, {"measurement": "neuroprotection against experimental stroke (OGD), single treatment", "setting": "[4]", "result": "exerted neuroprotection"}]}
